In patent US20150104392A1, “COMPOSITIONS, BIOMARKERS AND THEIR USE IN THE TREATMENT OF CANCER” (Aptose Biosciences Inc., priority 2013, published 2015):

Key:
[1] = Repeat-dose toxicity study; assay type: in vivo; conditions: dogs, highest dose tested
cancer cell lines = test: XTT antiproliferative assay, panel of cancer cell lines (FIG. 3); assay type: cell-based
Method: FIG. 3 is a graphical representation of the effect of LOR-253 on proliferation of a number of cancer cell lines in vitro. Cells of various cancer cell lines were incubated with LOR-253 as described in the Examples, and the […] concentrations of various cell lines for 50% of maximal inhibition of cell proliferation (GI50) by LOR-253 were determined and shown in the figure.
Antiproliferative activity of LOR-253 was determined by XTT assay as follows. Adherent cells (2×10^3/well) in 100 μL of growth medium were seeded in 96-well cell culture plates and incubated overnight at 37° C. The medium was removed and replaced with a total volume of 100 μL growth medium containing LOR-253 (or 0.1% DMSO vehicle control), as described in the respective experiments. […] After incubation of the cells at 37° C. for 5 days, cell viability was quantitated with the use of sodium 3′-[1-(phenylamino-carbonyl)-3,4-tetrazolium}-bis(4-methoxy-6-nitro)benzene sulfonic acid hydrate (XTT) colorimetric assay (Roche). […] The plates were further incubated at 37° C. for 4 h, and the absorbance of each well was measured at 490 nm with a multiwell spectrophotometer (Bio-Tek Instruments Inc.). The data were adjusted relative to the blank and expressed as a percentage of cell growth compared with the vehicle control. […]

H226 xenograft = H226 xenograft model, dose and schedule; assay type: in vivo, mice; conditions: groups 2, 3 and 4: 10 mg/kg-iv, schedules 3T-12B-3T, 2T-5B-2T, 3T-5B-3T, 2 cycles
THP1 [2] = test: Cell cycle analysis, propidium iodide flow cytometry; assay type: cell-based; conditions: 0.5 μM, 16 hours
Method: (§1) THP1 and HL-60 AML cell lines were treated with DMSO (vehicle control) or 0.5 μM LOR-253 for 16 hours. Cells were washed once in PBS+1% FCS and fixed using ice cold 70% ethanol overnight. Fixed cells were washed twice, resuspended in PI/RNaseA solution, containing 20 μg/mL propidium iodide and 250 μg/mL RNaseA, and stained for 30 minutes at 37° C. Stained cells were analyzed using a BD FACSCalibur flow cytometer.

HL-60 [3] = test: as above; assay type: cell-based; conditions: 0.5 μM, 16 hours
Method: as §1

hERG = hERG (Homo sapiens, UniProt Q12809); test: hERG tail current density
Sequence of hERG (Q12809 whole entry): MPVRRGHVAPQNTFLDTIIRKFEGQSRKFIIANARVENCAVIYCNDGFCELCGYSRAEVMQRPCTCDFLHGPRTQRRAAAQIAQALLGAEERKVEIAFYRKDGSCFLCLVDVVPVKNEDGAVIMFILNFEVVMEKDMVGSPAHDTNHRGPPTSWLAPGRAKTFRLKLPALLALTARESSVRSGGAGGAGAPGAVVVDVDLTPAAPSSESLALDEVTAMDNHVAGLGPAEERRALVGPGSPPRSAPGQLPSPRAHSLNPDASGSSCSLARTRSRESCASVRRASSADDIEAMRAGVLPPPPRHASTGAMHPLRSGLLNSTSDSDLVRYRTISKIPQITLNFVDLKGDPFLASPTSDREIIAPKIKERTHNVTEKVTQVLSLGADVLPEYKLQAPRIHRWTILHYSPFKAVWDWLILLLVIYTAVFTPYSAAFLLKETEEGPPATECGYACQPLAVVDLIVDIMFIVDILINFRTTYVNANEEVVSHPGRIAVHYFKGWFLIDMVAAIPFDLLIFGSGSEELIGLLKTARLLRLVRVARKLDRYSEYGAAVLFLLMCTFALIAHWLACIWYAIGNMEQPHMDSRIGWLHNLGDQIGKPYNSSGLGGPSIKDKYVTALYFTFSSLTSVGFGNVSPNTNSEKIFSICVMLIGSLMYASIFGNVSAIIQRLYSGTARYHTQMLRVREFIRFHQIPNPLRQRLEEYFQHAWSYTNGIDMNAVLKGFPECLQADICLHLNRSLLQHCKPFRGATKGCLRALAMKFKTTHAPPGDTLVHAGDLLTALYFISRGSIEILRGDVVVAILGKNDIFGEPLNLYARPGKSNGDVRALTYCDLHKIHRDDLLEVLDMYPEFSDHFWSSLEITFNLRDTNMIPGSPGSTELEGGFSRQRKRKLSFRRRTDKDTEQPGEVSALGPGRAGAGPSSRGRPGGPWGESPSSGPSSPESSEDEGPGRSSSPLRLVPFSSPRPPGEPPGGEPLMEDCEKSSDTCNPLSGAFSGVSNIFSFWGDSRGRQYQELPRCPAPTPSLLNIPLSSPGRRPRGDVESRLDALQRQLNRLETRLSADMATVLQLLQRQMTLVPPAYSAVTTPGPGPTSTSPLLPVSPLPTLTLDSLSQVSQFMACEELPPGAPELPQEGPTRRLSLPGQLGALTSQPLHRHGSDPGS

THP-1 cells = test: FITC-Annexin V / propidium iodide flow cytometry (apoptosis); assay type: cell-based; conditions: 16 hours
Method: THP-1 cells were treated with DMSO, 0.5 or 1 uM of LOR-253 for 16 hours. Cells were washed twice with cold PBS and resuspended Annexin V binding buffer. 1×10^5 cells in 100 μL were stained with FITC-Annexin V and propidium iodide, and incubated for 15 minutes at room temperature. After staining, 400 ul of binding buffer was added and the cells were kept on ice until analyzed on a BD FACSCanto flow cytometer.

THP1 [4] = test: Caspase 3 activity, EnzChek Caspase-3 Assay Kit; assay type: cell-based; conditions: 0.5 μM, 48 hours
Method: (§2) THP1 and HL-60 cells were treated with DMSO (vehicle control) or 0.5 μM LOR-253 for 48 hours. Cell lysates were collected using a 1% Triton-X100 lysis. Caspase 3 activity was measured using EnzChek Caspase-3 Assay Kit #1 (Life Technologies) with 5 μg of cell lysastes according to manufacturer's protocol.

HL-60 [5] = test: Caspase 3 activity, EnzChek Caspase-3 Assay Kit; assay type: cell-based; conditions: 0.5 μM, 48 hours
Method: as §2

THP1 cells = test: BAX/BCL2 expression, quantitative RT-PCR; assay type: cell-based, human; conditions: 0.5 μM, 48 hours
Method: (§3) THP1 cells were treated with DMSO (vehicle control) or 0.5 μM LOR-253 for 48 hours. Total RNA was extracted using the TRIzol Plus RNA Purification kit (Ambion, Life Technologies), according to the manufacturer's instructions. First strand cDNA was synthesized from 1-2 ug total RNA using random hexamer primers (Invitrogen) and the SuperScript II Reverse Transcriptase kit (Invitrogen). Quantitative RT-PCR was performed in the ABI Prism 7000 Sequence Detection System using cDNAs and human TaqMan Gene Expression Assay primer/probe sets for BCL2-associated X protein (BAX), B-cell CLL/Lymphoma 2 (BCL2) and the ABI TaqMan Universal PCR master mix protocol. Gene expression was normalized with β-actin gene expression in the same sample, and fold changes in BAX or BCL2 were expressed relative to the corresponding expression level in the DMSO treated samples using the comparative CT method.

[6] = GLP blood compatibility studies
THP1 [7] = test: KLF4/p21 induction, quantitative RT-PCR; assay type: cell-based, human; conditions: 0.5 μM, 16 hours
Method: as §3, with “To determine if KLF4 and/or p21 expressions are induced by LOR-253, AML” for “THP1”, “cells (THP1, HL-60)” for “cells”, “16” for “48”, “Krüppel-like factor 4 (KLF4), cyclin-dependent kinase inhibitor 1A (p21)” for “BCL2-associated X protein (BAX), B-cell CLL/Lymphoma 2 (BCL2)”, “KLF4” for “BAX”, “p21” for “BCL2”

HL-60 [8] = test: KLF4/p21 induction, quantitative RT-PCR; assay type: cell-based, human; conditions: 0.5 μM, 16 hours
Method: as §3, with “To determine if KLF4 and/or p21 expressions are induced by LOR-253, AML” for “THP1”, “cells (THP1, HL-60)” for “cells”, “16” for “48”, “Krüppel-like factor 4 (KLF4), cyclin-dependent kinase inhibitor 1A (p21)” for “BCL2-associated X protein (BAX), B-cell CLL/Lymphoma 2 (BCL2)”, “KLF4” for “BAX”, “p21” for “BCL2”

CYP450 enzymes = test: CYP450 enzyme inhibition; assay type: in vitro ADME

Cc1[nH]c2ccc(F)cc2c1-c1nc2c3cccnc3c3ncccc3c2[nH]1 [LOR-253]
cardiovascular effects [1]: no treatment-related cardiovascular effects | sensitivity of cell lines to LOR-253 (cancer cell lines; cell lines of lung, bladder, colon, prostate cancer, melanoma and breast cancer): less sensitive | sensitivity of cell lines to LOR-253 (cancer cell lines; leukemia/lymphoma incl. AML cell lines (HL-60, MV 411, THP-1, HEL92.1.7, CCRF-CEM, MOLT-4, Jurkat, K-562, Ramos, Raji)): most sensitive | tumor size, H226 xenograft (H226 xenograft): effectively treated | cell cycle effect (THP1 [2]): G1/S cell cycle arrest | cell cycle effect (HL-60 [3]): G1/S cell cycle arrest | inhibition of hERG tail current density (hERG): no significant inhibition | Annexin V staining (THP-1 cells; 0.5 or 1 uM): elevated Annexin V staining | early apoptotic population (Q3: Annexin V+/PI−) (THP-1 cells; increasing concentration (0.5 to 1 uM)): increase in the early apoptotic population | Caspase 3 activity (THP1 [4]): elevated Caspase 3 activity | Caspase 3 activity (HL-60 [5]): elevated Caspase 3 activity | BAX expression (fold change vs DMSO) (THP1 cells): Elevation of BAX | BCL2 expression (fold change vs DMSO) (THP1 cells): repression of BCL2 | blood compatibility of IV formulation [6]: confirmed the suitability of IV formulation | KLF4 expression (fold change vs DMSO) (THP1 [7]): increased expression | p21 expression (fold change vs DMSO) (THP1 [7]): increased expression | KLF4 expression (fold change vs DMSO) (HL-60 [8]): increased expression | p21 expression (fold change vs DMSO) (HL-60 [8]): increased expression | inhibition of CYP450 enzymes (CYP450 enzymes): no significant inhibition
